Assay results reported in US9176114B2, “Cell culture model for acquired chemoresistance of chronic myelogenous leukemia and related methods for identifying agents to overcome resistance” (CITY OF HOPE, priority 2007, dated 2015).
Where a name gives a salt, the structure may show the parent alone.

Assays:
CML CD34+ cells = assay: Apoptosis and p53 acetylation in primary CML CD34+ cells; assay type: cell-based, human
Source text: FIG. 32 illustrates that SIRT1 inhibition enhances apoptosis of human CML progenitor cells. (A) Inhibition of SIRT1 protein expression in CML and cord blood (CB) CD34+ cells by lentivirus-mediated expression of SIRT1 shRNA. […] (C) SIRT1 inhibition in CML CD34+ cells results in increased P53 acetylation. […] (F) SIRT1 expression in CB and AML CD34+ cells.

[1] = Physiological indexes of normal BALB/c mice after 10 day treatment; assay type: in vivo; conditions: tenovin-6 alone or in combination with imatinib
KCL-22 cells [2] = assay: Resistance assay: relapse of KCL-22 cells in prolonged liquid culture (CML acquired resistance model); assay type: cell-based, human; conditions: for relapse of KCL-22 cells on imatinib (STI-571) in combination with the inhibitor: prolonged culture
Source text: Cells were maintained in these cultures without changing medium.
Cells were maintained in these cultures without changing medium. Aliquots of cells were taken out at specified time points and cell numbers counted using a hematocytometer. Cell viability was accessed by trypan blue exclusion where necessary.

Solubility = assay type: physicochemical
CML mice [3] = assay: Mouse bone marrow transduction/transplantation model of CML-like disease, drug treatment
AML CD34+ cells = assay: Apoptosis of AML CD34+ cells; assay type: cell-based, human
SIRT1 = SIRT1 protein expression by Western blot; assay type: cell-based, human
Protocol: (§1) SIRT1 expression was analyzed by Western blot using 1:5000 diluted rabbit monoclonal SIRT1 antibody (Epitomics). Controls used were GAPDH or actin as loading controls with rabbit anti-GAPDH (Trevigen) or anti-actin (Sigma) at 1:5000 dilution. GAPDH [>ref|NT—009759.15|Hs12—9916:6497433-6502281 Homo sapiens chromosome 12 genomic contig, reference assembly] primers used are as follows: […]
RNA was extracted with Trizol (Invitrogen), synthesized the first strand DNA with Superscript III kit (Invitrogen), and analyzed gene expression using SYBR GreenER qPCR SuperMix kit (Invitrogen). For Western blots, rabbit monoclonal anti-human SIRT1 (Epitomics), rabbit anti-mouse SIRT1 (Upstate Biotech), mouse monoclonal anti-c-ABL (BD Pharmingen), mouse monoclonal anti-Ku70 (Neomarker), rabbit polyclonal anti-acetylated p53 (Cell Signaling) and rabbit polyclonal anti-acetylated FOXO1 (Santa Cruz Biotech) were used. To analyze Ku70 acetylation, Ku70 was pulled down from total cell lysate with anti-Ku70 and protein A-agarose beads (Upstate Biotech) followed by acetylation detection with rabbit anti-acetyl lysine antibody (Cell Signaling).

KU-812 xenograft = conditions: relapse after 48 to 60 days; cited from earlier work
CML mice [4] = conditions: P210 BCR-ABL BALB/c model; cited from earlier work
SIRT1 promoter = SIRT1 promoter assay (luciferase reporter); assay type: cell-based, human; conditions: KCL-22 and K562 cells
Protocol: FeOfection reagent (GENOVIS) was used to transfect 0.18 μg reporter and 0.02 μg pmaxGFP each well per the manufacturer's instruction. Six hours after transfection, cells were treated with imatinib and harvested after another 30 hs. Luciferase activity was measured using Dual-Luciferase Assay System (Promega), and normalized to GFP reading in each lysate.

K562 cells = assay: Growth factor-induced transient resistance (serum-free medium, basic supplements, insulin); assay type: cell-based, human; conditions: 1 μM STI-571, two days pre-incubation in SF medium with basic supplements
Protocol: (A) Growth curves of K562 cells in serum medium, and serum-free medium supplied with basic supplements containing 5 μg/ml insulin and 5 μg/ml transferrin (basic) with or without 75 ng/ml EGF, 25 μg/ml HDL or both (EH). […] Relative survival of imatinib treated cells was calculated by comparison to no drug treatment. Pre-incubation for two days renders resistance. […] Since sirtinol is insoluble in SF medium, HDL 25 μg/ml was added to help dissolve the drug. (D) Effects of basic supplements in serum medium. […] Viable cells were counted one and three days after the treatment. […] (F) Effects of insulin in resistance.
Whether serum-free medium supplied with select growth factors provides a better culture environment for developing CML chemoresistance was determined. Serum-free (SF) medium with insulin, transferring, epidermal growth factor (EGF) and high density lipoprotein (HDL) was used. SF medium with the basic supplements (5 μg/ml insulin and 5 μg/ml transferring) was sufficient to support growth of both K562 cells (FIG. 13A) and KCL-22 cells. […] Sirtinol is able to overcome CML resistance in SF culture.
Transient resistance conferred by insulin and transferrin supplement is of interest as insulin receptor is overexpressed in about 90% primary CML cells. The key insulin downstream target phosphatidylinositol-3 kinase (PI3K) is required for BCR-ABL mediated transformation and inhibition of PI3K-Akt-mTor pathway has been explored to overcome CML chemoresistance. SIRT1 is a key gene for regulating insulin secretion and directly regulates Akt downstream target FOXO proteins through deacetylation. Therefore, the effect of insulin itself for transient resistance to imatinib and the response of sirtinol treatment were examined.

HIC1 = HIC1 expression / SIRT1 level after HDAC and DNMT inhibitors; assay type: cell-based, human; conditions: KCL-22 cells, alone or in combination
Source text: Total cellular RNA with Trizol (Invitrogen) using a standard protocol. First strand DNA was synthesized and HIC1 expression by quantitative real-time RT-PCR using a kit with SYBR Green label (Invitrogen) as per the manufacture's instruction on a BioRad machine OPTICON. The following are the HIC1 primers (spanning introns), 5′-[…]-3′(exon 1a) and 5′-[…]-3′ (Exon 2). [>ref|NT—010718.15|Hs17—10875:1561637-1565694 Homo sapiens chromosome 17 genomic contig, reference assembly]
as §1

KCL-22 cells [5] = assay: Analysis of reactive oxygen species (ROS) and DNA damage (γH2AX); assay type: cell-based, human; conditions: 24 h, in the presence or absence of imatinib
Protocol: ROS was analyzed using redox-sensitive fluorochrome 2′.7′-dichlorofluorescein diacetate (Sigma) as described previously (Koptyra et al. 2006). When coupled with the apoptosis analysis, cells were labeled with annexin V first and then 2′.7′-dichlorofluorescein diacetate.
Cells were pre-selected for four days in HAT medium to remove pre-existing HPRT mutations. The efficiency of HAT selection was confirmed by plating these cells on soft agar with 2.5 μg/ml 6-thioguanine, which produced zero colony. HAT-selected cells were then treated with 0.5 μM CPT for 1 hour, and then cultured for 10 days before used for soft agar clonogenic assay with 6-thioguanine selection. The rest of HAT-selected cells were cultured in medium without selection. The change of γH2AX was analyzed with γH2AX Assay Kit (Upstate Biotech).

[6] = test system: SIRT1 and other sirtuin deacetylases; conditions: cited from earlier work
KCL-22M cells = conditions: 1 μM inhibitor
Protocol: Cell cycle was analyzed by fixing cells with 70% ethanol at −20° C. overnight. After washing, cells were resuspended in phosphate-buffered saline containing 1 mg/ml RNase A, incubated for 30 min at 37° C., and then stained with propidine iodine (50 μg/ml) for 30 min at room temperature before flow cytometry analysis. Cell proliferation was analyzed using a XTT Cell Proliferation kit (Roche Applied Science), and apoptosis was analyzed with annexin V kit (BD Pharmingen) as per the manufacturer's instruction.

[7] = 1 μM TSA with all dosages of STI-571

SMILES: CN(C)CCCCC(=O)Nc1ccc(NC(=S)NC(=O)c2ccc(C(C)(C)C)cc2)cc1 [tenovin-6]
- P53 acetylation in CML CD34+ cells (CML CD34+ cells): enhanced P53 acetylation
- apoptosis of primitive CML CD34+CD38- progenitors incl. quiescent fraction (CML CD34+ cells): increased apoptosis
- toxicity [1]: No noticeable toxicity
- lowest dose that blocked relapse on imatinib (KCL-22 cells [2]): 1 µM
- recurrence on nilotinib or dasatinib in combination with SIRT1 inhibitor (KCL-22 cells [2]): effectively blocked the recurrence
- relapse on […] Nilotinib in combination with SIRT1 inhibitor (KCL-22 cells [2]): blocked relapse
- relapse on 1 μM Dasatinib in combination with tenovin-6 (KCL-22 cells [2]; 1 μM tenovin-6): delayed the relapse
- relapse on 1 μM Dasatinib in combination with tenovin-6 (KCL-22 cells [2]; 5 μM tenovin-6): blocked relapse
- relapse of KCL-22 cells on imatinib (STI-571) in combination with the inhibitor (KCL-22 cells [2]): blocks relapse
- water solubility (Solubility): water soluble
- CML mouse survival (CML mice [3]; 50 mg/kg/day, 10 days from day 10 after transplantation): significantly extended CML mouse survival
- CML mouse survival, combination (CML mice [3]; tenovin-6 with imatinib): longest survivors
- apoptosis of AML CD34+ cells (AML CD34+ cells): induced apoptosis

SMILES: Cc1ccc(NC(=O)c2ccc(CN3CCN(C)CC3)cc2)cc1Nc1nccc(-c2cccnc2)n1 [STI-571, Imatinib mesylate]
- SIRT1 expression (SIRT1; KCL-22M cells): did not change SIRT1 expression
- SIRT1 protein levels (SIRT1; KCL-22 and K562 cells, imatinib 48 hours): decreased in a drug concentration-dependent manner
- sensitivity of KCL-22 cells to treatment (KCL-22 cells [2]; 1 μM STI-571): insensitive
- fraction of mice relapsing on STI-571 (KU-812 xenograft): one third
- mice with prolonged survival on STI-571 (CML mice [4]): 80%
- SIRT1 promoter activity (SIRT1 promoter): significantly inhibited SIRT1 promoter activity
- sensitivity of K562 cells to STI-571 in SF medium (K562 cells): as refractory as KCL-22 cells

SMILES: CC(/C=C/C(=O)NO)=C\[C@@H](C)C(=O)c1ccc(N(C)C)cc1 [TSA, trichostatin A]
- reactivation of HIC1 expression / reduction of SIRT1 level (HIC1): could not reactivate HIC1 expression or reduce SIRT1 level
- cell killing in combination with STI-571 (KCL-22 cells [2]; [7]): massive apoptosis and dramatic cell killing
- relapse on TSA plus STI-571 (KCL-22 cells [2]; [7]): After ten days, cells on all dosages of STI-571 relapsed
- toxicity on KCL-22 cells, inhibitor alone (KCL-22 cells [2]; TSA at 1 μM alone): little toxicity
- relapse of KCL-22 cells on imatinib (STI-571) in combination with the inhibitor (KCL-22 cells [2]): fails to block relapse
- γH2AX expression (KCL-22 cells [5]): elicited robust γH2AX induction
- sensitivity of SIRT1 to the inhibitor [6]: insensitive
- growth of KCL-22M cells (KCL-22M cells): no effect on cell growth
